{
  "source": "patent US6406843B1",
  "about": "“Poultry virus isolates and method” (University of Arkansas, priority 1998, dated 2002)",
  "assay_type_in_all_cases": "in vivo, chicken",
  "key": {"[1]": {"tested_on": "SPF white leghorn chickens", "experiment": "TUNEL staining for apoptotic cells in bursa and proventriculus", "set-up": "key: + indicates the presence of specific fluorescence following TUNEL staining; ++: multiple “+'s” indicate visual intensity assessment; +++: multiple “+'s” indicate visual intensity assessment; ++++: multiple “+'s” indicate visual intensity assessment; −: scored as positive when present and negative when absent", "settings": "4 days post challenge", "description": "Formalin fixed tissues from experiments described in Section 3 were utilized in this staining procedure. All tissues utilized were harvested at 4 days post challenge with a 1× concentration of USDA/STC IBDV or Variant E/11084 IBDV. Tissues from specific birds were selected following an initial screening with hematoxylin and eosin stained sections. Tissue preparation and sectioning were as follows. Tissues were placed in 10% buffered formalin at necropsy. Twenty-four hours later tissues were removed, manually trimmed to a thickness of ⅛ inch and placed in tissue cassettes. Tissues were dehydrated through graded alcohols and cleared in two changes of toluene. Tissues were then infiltrated with paraffin over a 16 hour period using an autoprocessor. Following paraffin infiltration, tissues were positioned in paraffin blocks and trimmed to expose a uniform tissue face. Prepared tissue blocks were stored at −20° C. until ready to be sectioned. Sections were cut at a thickness of 5 μm and floated on a water bath containing 5% gelatin to facilitate attachment (55). […]\nTissue sections were prepared as described earlier and removed from storage at 4° C. […] Slides were stored at 4° C. overnight before viewing for the presence of fluorescence. Slides were viewed using an Olympus BX50 microscope equipped with a Olympus PM-C35X camera and Omega dye specific fluorescence filters (DAPI 385-395) (FITC 475-497). […]"}, "[2]": {"tested_on": "commercial broiler chickens", "experiment": "Microscopic lesions in bursa and proventriculus of broilers", "settings": "broilers challenged 35 d post hatch", "description": "(§1) Tissues were placed in buffered formalin at necropsy, and processed twenty-four hours later by the method described in Section 1 (55). Tissues were examined for the presence of histopathological lesions induced by IBDV infection. Lesions in the lamina propria of the proventriculus were predominantly pleomorphism of the lymphoid cells in the mucosa along with lymphocyte depletion. Lesions in the bursa were predominantly lymphoid depletion with accompanied follicle degeneration.\n(§2) Tissues were given a numerical index score based on the presence or absence as well as the intensity of the lesions present. The score ranged from a low of “0” which indicates no lesions or pathology observed to a high of “4” which indicates extensive tissue damage."}, "[3]": {"tested_on": "SPF white leghorn chickens", "experiment": "Body weight after virus challenge", "description": "(§3) On days 4 and 11 post challenge 10 birds were necropsied from each virus challenge group and an additional 10 birds from the negative control. Each bird was weighed, bled, and euthanized by CO2 asphyxiation. All birds were necropsied at which time the bursa, and proventriculus were scored for the presence of gross lesions. The bursa, spleen, and proventriculus were individually weighed and results recorded. Tissues from each of the birds were cut in half, with one half being placed into 10% buffered formalin, and the other half being placed into a sterile sampling bag (Fisher Scientific, Pittsburgh, Pa.). Tissues in sterile sampling bags were frozen at −20° C. for later analysis utilizing IBDV Antigen Capture ELISA(AC-ELISA), as described by Snyder et al (138).\nAll data was entered into Microsoft™ Excel (Microsoft Corp., Redmond, Wash.). and were analyzed using SAS (10) (SAS Institute Inc., Cary, N.C.). Statistical significance was determined at the P<0.05 level using General Linear Models Procedure and least squared means for body weight, bursa: body weight ratios, spleen: body weight ratios, and proventriculus: body weight ratios. In addition, statistical differences were determined for means of the numerical index scores for gross lesions in the bursa and proventriculus."}, "[4]": {"tested_on": "SPF white leghorn chickens", "experiment": "Microscopic (histopathological) lesions in bursa and proventriculus", "settings": "for Microscopic lesions in the bursa, samples with lesions/screened / Microscopic lesions in the proventriculus, samples with lesions/screened: challenge at 28 d post hatch ± REO S-1133 and/or copper sulfate", "description": "Tissues were placed in 10% buffered formalin at necropsy. Twenty-four hours later tissues were removed and manually trimmed to a thickness of ⅛ inch and placed in tissue cassettes. Tissues were dehydrated through graded alcohols, and cleared in two changes of toluene. Tissues were then infiltrated with paraffin over a 16-hour period using an autoprocessor. Following paraffin infiltration, tissues were positioned in paraffin blocks and trimmed to expose a uniform tissue face. Prepared tissue blocks were stored at −20° C. until ready to be sectioned. Sections were cut at a thickness of 5μm and floated on a water bath containing 5% gelatin before they were placed on standard 1×3 inch slides. Tissue sections were then stained using the standard method of Harris (41), for hematoxylin and eosin.\nTissues were examined microscopically for the presence of histopathological lesions induced by IBDV infection. […] Lesions in the bursa were predominantly lymphoid depletion with accompanied follicle degeneration Tissues were given a numerical index score based on the presence or absence of lesions as well as the intensity of the lesions. The scores ranged from a low of “0” which indicates no lesions or pathology observed to a high of “4” which indicates extensive tissue damage.\nas §1, §2\nTissues were placed in buffered formalin at necropsy, and processed twenty-four hours later by the method described in Section 1 (55). Tissues were examined for the presence of histopathological lesions induced by IBDV infection. Tissues were given a numerical index score based on the presence or absence as well as the intensity of the lesions present. The score ranged from a low of “0” which indicates no lesions or pathology observed to a high of “4” which indicates extensive tissue damage.\nTissues were placed in buffered formalin at necropsy, and processed twenty-four hours later by the method described in Section 1 (55). Tissues were examined for the presence of histopathological lesions induced by IBDV infection."}, "[5]": {"tested_on": "commercial broiler chickens", "experiment": "AC-ELISA for IBDV in tissue homogenates of challenged broilers", "settings": "broilers challenged 35 d post hatch", "method": "Broiler chickens were challenged or, day 35 post hatch (PH) with the USDA/STC IBDV prepared inoculum as described previously. Infectious bursal disease virus challenge was administered to each individual bird bilaterally to the eye (30 μl per eye) using an Eppendorf micropipettor (Brinkmann Inc., Westbury, N.Y.) and a sterile pipette tip (Costar Corp., Cambridge, Mass.).\nas §3, with “challenge 25” for “challenge 10”, “the bursa” for “the bursa,”\nAC-ELISA test plates were prepared as described earlier in Section 1. Tissues were homogenized in AC-ELISA dilution buffer at a ratio of 1:5 tissue weight to volume. Homogenates were analyzed in duplicate against IBDV monoclonal B-29 AC-ELISA plates as described earlier in Section 1. Plates were read and means were calculated for the paired samples within each group and the homogenates were determined to be positive or negative based on the mean absorbance values as compared to the negative and positive controls on each plate."}, "[6]": {"tested_on": "SPF white leghorn chickens", "experiment": "Antigen Capture ELISA (AC-ELISA) for IBDV in tissue homogenates of challenged birds", "settings": "challenge at 28 d post hatch ± REO S-1133 and/or copper sulfate 1 lb/ton", "description": "On days 4 and 11 post challenge 10 birds were necropsied from each virus challenge group as well as an additional 10 birds from the negative control. Each bird was weighed, bled, and euthanized with CO2 gas. All bursae and proventriculi were scored for the presence of gross lesions during necropsy. The bursa, spleen, and proventriculus were individually weighed and weights recorded. Tissues from each of the first five birds were cut in half, with one half being placed into 10% buffered formalin, and the other half being placed into a sterile sampling bag (Fisher Scientific, Pittsburgh, Pa.). All tissues were pooled by organ and experimental treatment group into the buffered formalin and into the sampling bags. Tissues from the remaining five birds were placed only in the sterile sampling bags. Tissues in sterile sampling bags were frozen at −20° C. for later analysis utilizing Antigen Capture ELISA (AC-ELISA), as described by Snyder et al (11).\nMonoclonal antibody B-29 (University of Maryland, College Park, Md., Intervet Inc. , Millsboro, Del.) was diluted 1:10 in ice cold sterile distilled water. The solution was then acidified by the addition of 0.4 N sulfuric acid. The acidified monoclonal solution was incubated in an ice bath for one hour […]. Following incubation the acidified monoclonal antibody was diluted in 200 ml of coating buffer bringing the final dilution of monoclonal antibody to 1:10,000. ELISA optimized 96 well microtiter plates Corning #25805-96 (Corning Glass Works, Corning N.Y. 14831) were coated with 100 μl per well of a 1:10,000 dilution of monoclonal antibody B-29 (University of Maryland, College Park, Md.; Intervet, Inc., Millsboro Del.) ascitic fluid in coating buffer (Appendix). Plates were covered with individual plate sealers (Dynatech, Chantilly Va.), and incubated for 2 hours at 37° C. and then overnight at 4° C. Coated plates were washed three times with washing buffer (Appendix), with residual fluid being tapped out. Plates were allowed to air dry at room temperature and were then covered with individual plate sealers and stored at −20° C. until needed.\nInfectious bursal disease virus suspect tissues were homogenized in AC-ELISA dilution buffer (Appendix) at a ratio of 1:5 or approximately 20% tissue weight to volume. Homogenization was accomplished by use of a rubber mallet, followed by the addition of the dilution buffer. One hundred fifty μl of each bursal homogenate and 300 μl of each proventricular homogenate were placed in duplicate in a 96 well round bottom plate. The concentration of the bursa tissue was adjusted by addition of 150 μl of AC-ELISA dilution buffer. There was no additional dilution to the proventriculus tissue homogenates. […]"}},
  "data": [
    {"smiles": "O=S(=O)([O-])[O-].[Cu+2]", "note": "[NC + CS, copper sulfate]", "values": [
      {"measurement": "TUNEL staining, bursa", "setting": "[1]", "value": "−"},
      {"measurement": "TUNEL staining, proventriculus", "setting": "[1]", "value": "−"},
      {"measurement": "Microscopic lesions in the bursa", "setting": "[2]; day 4 post challenge", "value": "0/10"},
      {"measurement": "Microscopic lesions in the proventriculus", "setting": "[2]; day 4 post challenge", "value": "0/10"},
      {"measurement": "Microscopic lesions in the bursa", "setting": "[2]; day 11 post challenge", "value": "9/10"},
      {"measurement": "Microscopic lesions in the proventriculus", "setting": "[2]; day 11 post challenge", "value": "0/10"},
      {"measurement": "Body weight gain vs negative control", "setting": "[3]; between day 4 and day 11 post challenge", "value": "significantly lower"},
      {"measurement": "Day 11 body weight means vs negative control", "setting": "[3]; day 11 post challenge", "value": "significantly different"},
      {"measurement": "Microscopic lesions in the bursa, samples with lesions/screened", "setting": "[4]; day 4 post challenge", "value": "0/10"},
      {"measurement": "Microscopic lesions in the proventriculus, samples with lesions/screened", "setting": "[4]; day 4 post challenge", "value": "0/10"},
      {"measurement": "Microscopic lesions in the bursa, samples with lesions/screened", "setting": "[4]; day 11 post challenge", "value": "0/10"},
      {"measurement": "Microscopic lesions in the proventriculus, samples with lesions/screened", "setting": "[4]; day 11 post challenge", "value": "0/10"},
      {"measurement": "Lesions in the proventriculus, gross or microscopic", "setting": "[4]; dietary copper levels used, without virus", "value": "no lesions in the proventriculus either gross or microscopic"},
      {"measurement": "AC-ELISA bursal homogenates, positive/tested", "setting": "[5]; day 4 post challenge", "value": "0/10"},
      {"measurement": "AC-ELISA proventricular homogenates, positive/tested", "setting": "[5]; day 4 post challenge", "value": "0/10"},
      {"measurement": "AC-ELISA bursal homogenates, positive/tested", "setting": "[5]; day 11 post challenge", "value": "0/10"},
      {"measurement": "AC-ELISA proventricular homogenates, positive/tested", "setting": "[5]; day 11 post challenge", "value": "0/10"},
      {"measurement": "AC-ELISA bursal homogenates, positive/tested", "setting": "[6]; day 4 post challenge", "value": "0/10"},
      {"measurement": "AC-ELISA proventricular homogenates, positive/tested", "setting": "[6]; day 4 post challenge", "value": "0/10"},
      {"measurement": "AC-ELISA bursal homogenates, positive/tested", "setting": "[6]; day 11 post challenge", "value": "0/10"},
      {"measurement": "AC-ELISA proventricular homogenates, positive/tested", "setting": "[6]; day 11 post challenge", "value": "0/10"}
    ]}
  ]
}
